{"source": "patent US7485326B2", "about": "“Oral microemulsion composition comprising biphenyldimethyldicarboxylate and silybin” (Hanmi Pharm Co., Ltd., priority 2003, dated 2009)", "key": {"[1]": {"tested_on": "liver damaged by CCl4", "test": "Therapeutic effect on the liver damaged by carbon tetrachloride (Test Example 1)", "assay_type": "in vivo, Sprague Dawley rats", "conditions": "serum", "method": "The therapeutic effect of the inventive oral microemulsion composition on the liver damaged by CCl4 was examined as follows.\nThirty-six 4 to 5-week old male Sprague Dawley rats were divided into six groups each consisting of 6 rats having an average body weight of 202±5g. The rats were acclimated to the cage environment set at 23±2° C. and 55±5% relative humidity. Then 50% (v/v) solution of carbon tetrachloride in corn oil was intraperitoneally administered to each rat of five experimental groups (Groups 1 to 5) at a dose of 0.75 ml/kg, twice a week (monday and friday) to induce hepatotoxicity.\nThe rats of Group 1 (negative control) were not treated with any therapeutic drug after the CCl4 injection. The rats of Group 2 (positive control) were orally administered with BDD suspended in 1% (w/v) CMC (carboxymethyl cellulose) once a day, six times a week after the CCl4 injection, in an amount corresponding to 25 mg/kg of BDD; the rats of Group 3, with a Carduus marianus extract suspended in 1% (w/v) CMC, in an amount corresponding to 175 mg/kg of the Carduus marianus extract (52.5 mg/kg as silybin); and the rats of Group 4, with a simple mixture of BDD and Carduus marianus extract suspended in 1% (w/v) CMC, in an amount corresponding to 25 mg/kg of BDD and 175 mg/kg of the Carduus marianus extract. The rats of Group 5 were orally administered with the formulation of Example 3 once a day, six times a week, in an amount corresponding to 3 mg/kg of BDD and 175 mg/kg of the Carduus marianusextract; and the rats of Group 6 (normal group) were not subjected to CCl4injection and no therapeutic drugs were administered thereto.\nFour weeks after the administration, the rats were sacrificed and serum samples were taken according to a preset schedule. The serum ALT (alanine aminotransferase) and AST (aspartate aminotransferase) levels were measured in accordance with a conventional method, and the results are shown in Tables 1 and 2, respectively."}, "[2]": {"tested_on": "fatty liver induced by dl-ethionine", "test": "Therapeutic effect on the dl-ethionine-induced fatty liver (Test Example 3)", "assay_type": "in vivo, Sprague Dawley rats", "method": "In order to examine the therapeutic effect of the inventive oral microemulsion composition, a test to measure the activity of restoring fatty liver induced by dl-ethionine was conducted as follows.\nSix groups of rats, each consisting of 6 rats were prepared by the procedure of Test Example 1. A 2% (w/v) dl-ethionine saline solution was subcutaneously injected to each rat of five experimental groups (Groups 1 to 5) at a dosage of 200 mg/kg, twice a week to induce fatty liver.\nThe rats of Group 1 (negative control) were not treated with any therapeutic drug after the ethionine injection. The rats of Group 2 (positive control) were orally administered with BDD suspended in 1% (w/v) CMC once a day, five times a week after the ethionine injection, in an amount corresponding to 25 mg/kg of BDD; the rats of Group 3, with the Carduus marianus extract suspended in 1% (w/v) CMC, in an amount corresponding to 175 mg/kg of the Carduus marianus extract (52.5 mg/kg as silybin); and the rats of Group 4, with a simple mixture of BDD and Carduus marianusextract suspended in 1% (w/v) CMC, in an amount corresponding to 25mg/kg of BDD and 175 mg/kg of the Carduus marianus extract. The rats of Group 5 were orally administered with the formulation of Example 3 once a day, five times a week, in an amount corresponding to 3 mg/kg of BDD and 175 mg/kg of the Carduus marianus extract; and the rats of Group 6 (normal group) received neither ethionine injection nor any therapeutic drug.\nOne week after the administration, each rat was sacrificed, and the liver was extracted therefrom. The extracted liver was washed with saline, soaked in a 4-fold volume of potassium phosphate buffer (pH 7.5), and homogenized with a teflone-glass homogenizer. The homogenized liver was subjected to centrifugation at 600×g for 10 minutes to obtain a supernatant, which was subjected to centrifugations at 10,000×g for 20minutes, and then at […], to obtain a supernatant.\nThen, the total cholesterol and triglyceride levels of each liver sample were measured by employing the supernatant in accordance with a conventional method, and the results are shown in Tables 5 and 6, respectively."}, "[3]": {"conditions": "CCl4-treated rats, oral once a day six times a week, four weeks, BDD 25 mg/kg, extract 175 mg/kg, Example 3: 3 mg/kg BDD + 175 mg/kg extract"}, "[4]": {"conditions": "versus CCl4 control Group 1, four weeks"}, "[5]": {"conditions": "dl-ethionine-treated rats, oral once a day five times a week, one week, BDD 25 mg/kg, extract 175 mg/kg, Example 3: 3 mg/kg BDD + 175 mg/kg extract"}, "[6]": {"conditions": "versus ethionine control Group 1, one week"}}}
{"smiles": "COC(=O)c1cc(OC)c2c(c1-c1c(C(=O)OC)cc(OC)c3c1OCO3)OCO2", "note": "[BDD, biphenyldimethyldicarboxylate]", "values": [{"measurement": "ALT (average concentration ± standard deviation)", "setting": "[1]; [3]", "value": "137.7 ± 19.5", "unit": "SF U/ml"}, {"measurement": "AST (average concentration ± standard deviation)", "setting": "[1]; [3]", "value": "163.3 ± 4.5", "unit": "SF U/ml"}, {"measurement": "Ratio of ALT level to a control", "setting": "[1]; [4]", "value": 91.7, "unit": "%"}, {"measurement": "Ratio of AST level to a control", "setting": "[1]; [4]", "value": 95.2, "unit": "%"}, {"measurement": "Total Cholesterol (average concentration ± standard deviation)", "setting": "[2]; [5]", "value": "22.0 ± 1.9", "unit": "mg/g"}, {"measurement": "Triglyceride (average concentration ± standard deviation)", "setting": "[2]; [5]", "value": "10.1 ± 0.5", "unit": "mg/g"}, {"measurement": "Ratio of cholesterol level to a control", "setting": "[2]; [6]", "value": 91.3, "unit": "%"}, {"measurement": "Ratio of triglylceride level to a control", "setting": "[2]; [6]", "value": 72.7, "unit": "%"}]}
